Assay results as given in patent US20120101160A1, “Use of chemical chaperones to treat glaucoma caused by misfolded or misprocessed proteins” (Alcon, Inc., priority 2004, published 2012).

Columns and labels:
[1] = target: ΔF508 cystic fibrosis transmembrane conductance regulator protein (CFTR) (Homo sapiens, UniProt P13569, DEL508-508); conditions: cells expressing ΔF508 CFTR; similar to cells expressing the wild-type CFTR protein; cited from earlier work
mutant (Q368X) myocilin = target: T1, mutant (Q368X) myocilin (Homo sapiens, UniProt Q99972); assay: secretion of mutant myocilin in cultured CHO cells (Western blot of media and lysates); assay type: cell-based; conditions: CHO stable transfectants expressing Q368X myocilin; overnight incubation with chemical chaperone; glycerol 10%; E and I lanes; FIG. 1/FIG. 2
T1 construct: expressed in transfected cells
T1 sequence (Q99972 33-367 limits assumed): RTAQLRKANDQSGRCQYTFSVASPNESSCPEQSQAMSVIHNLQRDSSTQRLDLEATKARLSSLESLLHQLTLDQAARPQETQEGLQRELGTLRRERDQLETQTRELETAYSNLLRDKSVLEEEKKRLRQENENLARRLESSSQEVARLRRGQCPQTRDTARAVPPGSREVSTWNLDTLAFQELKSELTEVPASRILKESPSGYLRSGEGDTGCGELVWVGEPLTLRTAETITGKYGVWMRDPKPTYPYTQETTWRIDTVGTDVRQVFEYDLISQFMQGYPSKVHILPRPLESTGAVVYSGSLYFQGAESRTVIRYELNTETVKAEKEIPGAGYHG
Description: (§1) Wild-type myocilin is normally expressed and secreted from the human TM, whereas mutant disease-causing myocilin is retained intracellularly (Jacobson, Andrews et al. 2001). […] We tested several compounds for their ability to effect secretion of mutant myocilin in cultured CHO cells that were engineered for their ability to express, but not secrete, mutant (Y437H or Q368X) myocilin. Plasmids expressing wild-type or mutant myocilin were generated as described (Jacobson, Andrews et al. 2001).
(§2) CHO stable transfectants were grown in F12K media containing 10% FBS supplemented with penicillin-streptomycin-glutamine. Stable transfectants were generated by transfection with lipofectamine plus (Invitrogen) followed by limiting dilution plating and selection in G-418 (600 ug/ml). CHO cells were incubated with serum-free media 24 h post-transfection and media or cell lysates were collected after overnight incubation with the chemical chaperone. Equivalent cell lysate protein amounts (5 ug) were loaded for SDS-PAGE analysis. Cell media was not concentrated and was loaded at 16 ul per lane for SDS-PAGE/Western blot analysis.
(§3) Cells were rinsed with PBS and solubilized in a commercial mammalian extraction buffer (M-Per™; Pierce, Rockford, Ill.) supplemented with a protease inhibitor cocktail (Complete, EDTA-free; Boehringer Mannheim, Indianapolis, Ind.) followed by centrifugation at 12,000×g for 5 min. Protein concentration of the supernatant was determined with Coomasie Plus Protein Assay Reagent (Pierce). Cell extracts were stored at −20° C.
(§4) Cell media or extracts were analyzed using pre-cast NuPAGE polyacrylamide gels and the Novex gel electrophoresis system (Novex, San Diego, Calif.). Proteins were electroblotted to Hybond-P PVDF membranes (Amersham Pharmacia Biotech, Piscataway, N.J.), blocked with gelatin, and probed with affinity purified rabbit anti-MYOC antibody 129 (generated to myocilin peptide 156-171) (Jacobson, Andrews et al. 2001) and an anti-rabbit IgG secondary antibody (Amersham). Immunoreactivity was detected with the ECL Plus detection system (Amersham). Blots were exposed to BioMax MR film (Eastman Kodak, Rochester, N.Y.) and scanned with a Hewlett-Packard ScanJet ADF scanner (Hewlett Packard, Boise, Id.) for figure presentation.

mutant (Y437H) myocilin = target: T2, mutant (Y437H) myocilin (Homo sapiens, UniProt Q99972, Y437H); assay: as above; assay type: cell-based; conditions: CHO stable transfectants expressing Y437H myocilin; overnight incubation with chemical chaperone; glycerol 10%; E lane; FIG. 1/FIG. 2
T2 construct: expressed in transfected cells
T2 sequence (Q99972 33-504 Y437H): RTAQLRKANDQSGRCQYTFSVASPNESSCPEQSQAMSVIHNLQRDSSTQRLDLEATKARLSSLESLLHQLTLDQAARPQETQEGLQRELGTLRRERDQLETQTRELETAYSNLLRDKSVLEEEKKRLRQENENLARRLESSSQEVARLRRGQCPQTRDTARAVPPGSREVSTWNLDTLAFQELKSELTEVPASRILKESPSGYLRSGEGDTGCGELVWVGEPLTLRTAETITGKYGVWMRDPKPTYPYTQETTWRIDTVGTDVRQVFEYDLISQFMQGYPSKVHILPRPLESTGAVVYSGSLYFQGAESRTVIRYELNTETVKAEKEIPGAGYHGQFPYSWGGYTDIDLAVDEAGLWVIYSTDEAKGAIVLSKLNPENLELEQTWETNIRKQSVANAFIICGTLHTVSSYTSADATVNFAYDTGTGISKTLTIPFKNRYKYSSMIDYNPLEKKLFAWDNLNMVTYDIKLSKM
Description: as §1, §2, §3, §4

ΔF508 cystic fibrosis transmembrane conductance regulator protein (CFTR), sequence (P13569 with tags, fused parts or gaps DEL508-508): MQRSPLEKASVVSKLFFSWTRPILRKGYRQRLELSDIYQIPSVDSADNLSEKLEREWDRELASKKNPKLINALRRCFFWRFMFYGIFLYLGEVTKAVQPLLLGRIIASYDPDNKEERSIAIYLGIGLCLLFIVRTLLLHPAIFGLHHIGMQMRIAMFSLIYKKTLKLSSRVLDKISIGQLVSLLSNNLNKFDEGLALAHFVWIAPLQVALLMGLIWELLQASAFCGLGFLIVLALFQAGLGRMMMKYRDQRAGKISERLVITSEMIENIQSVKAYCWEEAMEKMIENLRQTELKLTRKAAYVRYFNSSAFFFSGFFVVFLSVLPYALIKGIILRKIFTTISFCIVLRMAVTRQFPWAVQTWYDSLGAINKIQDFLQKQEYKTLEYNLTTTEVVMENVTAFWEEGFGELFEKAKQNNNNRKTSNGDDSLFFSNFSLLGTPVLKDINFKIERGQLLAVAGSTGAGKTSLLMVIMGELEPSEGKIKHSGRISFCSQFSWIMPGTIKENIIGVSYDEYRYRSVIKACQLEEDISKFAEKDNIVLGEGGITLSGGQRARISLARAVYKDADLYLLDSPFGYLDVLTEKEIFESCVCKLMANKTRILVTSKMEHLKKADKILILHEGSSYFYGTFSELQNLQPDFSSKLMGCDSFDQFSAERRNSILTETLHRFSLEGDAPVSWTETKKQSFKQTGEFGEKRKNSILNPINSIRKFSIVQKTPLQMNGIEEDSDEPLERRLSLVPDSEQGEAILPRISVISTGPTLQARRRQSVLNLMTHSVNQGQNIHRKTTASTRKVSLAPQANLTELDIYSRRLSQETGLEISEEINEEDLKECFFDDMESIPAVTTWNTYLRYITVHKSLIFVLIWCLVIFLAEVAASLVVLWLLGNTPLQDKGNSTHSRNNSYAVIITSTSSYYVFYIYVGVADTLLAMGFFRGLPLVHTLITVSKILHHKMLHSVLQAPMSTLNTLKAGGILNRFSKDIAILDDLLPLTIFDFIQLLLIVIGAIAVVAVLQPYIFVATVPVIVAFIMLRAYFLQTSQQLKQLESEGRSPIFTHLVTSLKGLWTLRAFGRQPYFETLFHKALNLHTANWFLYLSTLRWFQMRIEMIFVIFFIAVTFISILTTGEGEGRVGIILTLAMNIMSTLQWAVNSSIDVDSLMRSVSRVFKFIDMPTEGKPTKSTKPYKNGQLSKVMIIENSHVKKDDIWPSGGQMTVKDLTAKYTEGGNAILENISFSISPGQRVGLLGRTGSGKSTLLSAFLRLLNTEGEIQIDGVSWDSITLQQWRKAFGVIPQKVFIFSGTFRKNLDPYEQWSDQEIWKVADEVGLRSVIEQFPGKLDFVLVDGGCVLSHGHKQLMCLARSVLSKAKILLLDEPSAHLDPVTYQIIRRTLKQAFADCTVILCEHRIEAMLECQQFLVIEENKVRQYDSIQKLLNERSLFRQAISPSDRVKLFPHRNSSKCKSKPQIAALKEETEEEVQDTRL

Row | Molecule | restoration of forskolin-dependent chloride transport [1] | ability to effect secretion of mutant myocilin (mutant (Q368X) myocilin) | ability to effect secretion of mutant myocilin (mutant (Y437H) myocilin)
1 | [2H]O[2H] [deuterated water] | restored the ability of the mutant cells to exhibit forskolin-dependent chloride transport |  | 
2 | C[N+](C)(C)[O-] [trimethylamine N-oxide] | restored the ability of the mutant cells to exhibit forskolin-dependent chloride transport |  | 
3 | OCC(O)CO [Glycerol, glycerol] | restored the ability of the mutant cells to exhibit forskolin-dependent chloride transport | able to effect full-length myocilin secretion | able to effect full-length myocilin secretion
4 | Gentamycin |  | did not effect secretion of mutant myocilin | did not effect secretion of mutant myocilin
